# How the values were obtained:
# [1] = system: breast cancer, ovarian cancer, and mesothelioma; assay: Phase 1b/2 study of rebastinib in combination with carboplatin; assay type: in vivo, human
# Protocol: This is a Phase 1b/2 study where patients with mesothelioma are administered rebastinib in combination with carboplatin. The study follows a Simon 2-stage design at the MTD and R2PD. Safety and tolerability, PK and PD, and preliminary efficacy data was used to determine the RP2D. Upon determination of the RP2D or MTD, the Simon 2-stage design is initiated to dose evaluable patients using the RP2D or MTD across three indication-specific cohorts (breast cancer, ovarian cancer, and mesothelioma).
# (§1) Each cohort initially enrolls up to 18 evaluable patients in the first stage. Patients must receive at least 1 dose of the combination and have 1 post-baseline assessment (including assessment of clinical progression), or be discontinued prior to the postbaseline disease assessment due to an AE at least possibly related to rebastinib, to be considered evaluable. Tumor response is assessed according to Response Evaluation Criteria in Solid Tumors (RECIST) Version 1.1. The decision to enroll patients beyond the first stage is based on response assessments obtained after the first post-dose response assessment of the last patient enrolled in the first stage of a cohort. […] If ≤4 responses are seen in a cohort, the cohort will be terminated. If >4 responses are seen prior to the last evaluable patient in the first stage, expanding the cohort may be triggered earlier. Enrollment in each cohort will pause between the first and second stage of the Simon two-stage for evaluation of response. Patients will receive study treatment until they develop progressive disease, experience unacceptable toxicity, or withdraw consent.
# At a second time point, 22 patients were enrolled in the study (3 cohorts: 3 patients at rebastinib 50 mg BID+carboplatin AUC5, 14 patients at rebastinib 100 mg BID+carboplatin AUC5, and 5 pts at rebastinib 100 mg BID+carboplatin AUC6). The median age was 61 yrs. Most frequent diagnoses were breast cancer (n=5); neuroendocrine carcinoma (n=3); pancreatic adenocarcinoma, NSCLC, and cholangiocarcinoma (n=2 each). The median number of prior anti-cancer therapies was 4 (1, 12). Median duration of treatment was 8.4 weeks (0.9, 22.6).
# ovarian cancer = assay: Phase 1b/2 rebastinib + paclitaxel, Part 2 Cohort 3 (RECIST v1.1, CA-125 response); assay type: in vivo, human
# From the text: as §1, with “Upon determination of the RP2D, Part 2 is initiated to dose up to 165 evaluable patients using the RP2D across five indication-specific cohorts. A Simon's two-stage design is applied to Part 2 to further evaluate the safety, tolerability, and preliminary efficacy of rebastinib in combination with paclitaxel in triple-negative breast (Cohort 1), inflammatory breast (Cohort 2), ovarian (Cohort 3), endometrial adenocarcinoma (Cohort 4), and gynecologic carcinosarcoma (Cohort 5) cancers. Each” for “Each”, “progression)” for “progression),”
# 29 patients with ovarian cancer were enrolled in this portion of the study as a safety population. Patients were treated with rebastinib (50 or 100 mg BID) in combination with 80 mg/m^2 intravenous weekly paclitaxel (day 1, day 8, and day 15 of repeated 28-day cycles). 10 of the patients treated with rebastinib were at a starting dose of 100 mg BID and 80 mg/m^2 weekly paclitaxel, of which the doses of 7 were reduced to 50 mg BID and 80 mg/m^2 weekly paclitaxel, and […] were at a starting dose of 50 mg BID and 80 mg/m^2 weekly paclitaxel. 23 (79%) patients received ≥4 prior anticancer regimens, and all patients received prior platinum and taxane-based therapy; 89% received anti-angiogenic therapy, 62% received anti-PARP therapy, and 31% received immunotherapy.
# 24 of the 29 patients met the modified intention-to-treat (mITT) criteria. Anti-tumor activity was assessed using RECIST v1.1 and Gynecological Cancer Intergroup CA-125 response. From 24 patients in the mITT population, the objective response rate was 38% and the clinical benefit rate at 8 weeks was 88%.
# 38 patients in a platinum-resistant ovarian cancer cohort were enrolled in this portion of the study as a safety population. Patients were treated with rebastinib (50 or 100 mg BID) in combination with 80 mg/m^2 intravenous weekly paclitaxel (day 1, day 8, and day 15 of repeated 28-day cycles). 34 of the 38 patients met the met the modified intention-to-treat (mITT) criteria. 27 (71%) patients received ≥4 prior anticancer regimens, and 97% patients received prior platinum and taxane-based therapy; 84% received bevacizumab, 66% received a PARP inhibitor, 31% received immunotherapy, and the average number of lines of therapy after platinum resistance was 2.
# [2] = time point 1, rebastinib and carboplatin combination
# [3] = Cohort 3, time point 1, of the twelve with stable disease at Cycle 3, Day 1, Cycle 5, Day 1
# [4] = Cohort 3, time point 1, rebastinib + paclitaxel, Cycle 3, Day 1
# [5] = Cohort 3, time point 2, 17 evaluable patients
# [6] = Table 1, Cohort 3, time point 4, mITT N = 34, patients (%)
# [7] = Table 1, Cohort 3, time point 4, n 12
compound,measurement,setting,value
CNC(=O)c1cc(Oc2ccc(NC(=O)Nc3cc(C(C)(C)C)nn3-c3ccc4ncccc4c3)c(F)c2)ccn1 [rebastinib],Tolerability,"[1]; time point 1, rebastinib 50 mg and 100 mg BID in combination with carboplatin AUC5",tolerated
same,Tolerability,"[1]; time point 1, rebastinib 100 mg BID in combination with carboplatin AUC6 (3 patients)",tolerated
same,Muscular weakness,[1]; [2],No muscular weakness
same,Response in the dose escalation cohorts,[1]; [2],No response
same,Partial response (PR),"[1]; time point 2, 22 patients enrolled, rebastinib 50 or 100 mg BID + carboplatin AUC5 or AUC6, preliminary",1
same,Muscular weakness in the dose expansion cohort,"[1]; time point 2, rebastinib 100 mg BID with carboplatin AUC5, RP2D adjusted to 50 mg BID",increased frequency
same,CBR at 6 weeks,"[1]; time point 2, rebastinib + carboplatin, preliminary",52%
same,Patients with partial response,ovarian cancer; [3],three
same,Patients with stable disease,ovarian cancer; [3],four
same,Patients with partial response (second statement),"ovarian cancer; Cohort 3, time point 1, of the twelve with stable disease at Cycle 3, Day 1, Cycle 5, Day 1 (stated a second time)",one
same,Patients with stable disease,"ovarian cancer; Cohort 3, time point 1, of the twelve with stable disease at Cycle 3, Day 1, Cycle 5, Day 8",one
same,Patients with stable disease,"ovarian cancer; Cohort 3, time point 1, of the twelve with stable disease at Cycle 3, Day 1, Cycle 8, Day 1",two
same,Patients with partial response,"ovarian cancer; Cohort 3, time point 1, of the two with partial response at Cycle 3, Day 1, Cycle 5, Day 1",one
same,Patients with partial response,ovarian cancer; [4],Two
same,Patients with stable disease,ovarian cancer; [4],twelve
same,CBR,ovarian cancer; [5],82%
same,ORR,ovarian cancer; [5],29%
same,Stable diseases,ovarian cancer; [5],9
same,Partial responses,"ovarian cancer; Cohort 3, time point 2, 17 evaluable patients, rebastinib 100 or 50 mg BID + paclitaxel",5
same,"Muscular weakness, patients","ovarian cancer; Cohort 3, time point 2, initially 100 mg BID rebastinib (10 patients)",4 patients
same,Muscular weakness at reduced dose,"ovarian cancer; Cohort 3, time point 2, reduced dose of 50 mg BID",No additional muscular weakness
same,"CA-125 response, patients","ovarian cancer; Cohort 3, time point 3, 17 patients with CA-125 measurements",10 (59%)
same,Clinical benefit rate at 8 weeks,"ovarian cancer; Cohort 3, time point 3, 24 patients mITT",88%
same,Objective response rate,"ovarian cancer; Cohort 3, time point 3, 24 patients mITT, rebastinib 50 or 100 mg BID with weekly paclitaxel 80 mg/m^2",38%
same,CA-125 response,"ovarian cancer; Cohort 3, time point 4, 17 of 26 evaluable patients",65.4%
same,Clinical benefit rate at 8 weeks,"ovarian cancer; Cohort 3, time point 4, 34 patients mITT",88%
same,Objective response rate (confirmed+unconfirmed),"ovarian cancer; Cohort 3, time point 4, platinum-resistant ovarian cancer, 34 patients mITT, rebastinib 50 or 100 mg BID with weekly paclitaxel 80 mg/m^2",35%
same,Best Overall Response: Confirmed Partial Response,ovarian cancer; [6],5 (14.7%)
same,Best Overall Response: Not Evaluable,ovarian cancer; [6],3 (8.8%)
same,Best Overall Response: Partial Response,ovarian cancer; [6],12 (35.3%)
same,Best Overall Response: Progressive Disease,ovarian cancer; [6],1 (2.9%)
same,Best Overall Response: Single Response Awaiting Confirmation,ovarian cancer; [6],4 (11.8%)
same,Best Overall Response: Stable Disease,ovarian cancer; [6],18 (52.9%)
same,Best Overall Response: Unconfirmed Single Response,ovarian cancer; [6],3 (8.8%)
same,"Duration of Response, Events (%)",ovarian cancer; [7],5 (41.7%)
same,"Time to Response, Mean (SD)",ovarian cancer; [7],3.1 (1.3)
same,"Duration of Response, Kaplan-Meier Median (80% CI)","ovarian cancer; Table 1, Cohort 3, time point 4, n 12, NE: Not evaluated","5.5 (1.9, NE)"

# From patent publication US20210275518A1, “METHODS OF USING REBASTINIB IN THE TREATMENT OF DISORDERS” (Deciphera Pharmaceuticals, LLC, priority 2020, published 2021)
